Source: patent US20040082635A1, “Fused cyclic compounds and medicinal use thereof” (priority 2001, published 2004)
Counter-ions that a name gives are not always drawn.

Molecular target: T1, HCV polymerase (Hepatitis C virus genotype 1b, UniProt P26663)
T1 construct: a region encoding NS5B (591 amino acids; J Virol 1991 Mar, 65(3), 1105-13) was amplified by PCR; 6 His (N); made in house; host or cells: Escherichia coli
Assay: biochemical
Details: read-out: HCV polymerase inhibitory activity IC50

T1 sequence (P26663 2420-3010): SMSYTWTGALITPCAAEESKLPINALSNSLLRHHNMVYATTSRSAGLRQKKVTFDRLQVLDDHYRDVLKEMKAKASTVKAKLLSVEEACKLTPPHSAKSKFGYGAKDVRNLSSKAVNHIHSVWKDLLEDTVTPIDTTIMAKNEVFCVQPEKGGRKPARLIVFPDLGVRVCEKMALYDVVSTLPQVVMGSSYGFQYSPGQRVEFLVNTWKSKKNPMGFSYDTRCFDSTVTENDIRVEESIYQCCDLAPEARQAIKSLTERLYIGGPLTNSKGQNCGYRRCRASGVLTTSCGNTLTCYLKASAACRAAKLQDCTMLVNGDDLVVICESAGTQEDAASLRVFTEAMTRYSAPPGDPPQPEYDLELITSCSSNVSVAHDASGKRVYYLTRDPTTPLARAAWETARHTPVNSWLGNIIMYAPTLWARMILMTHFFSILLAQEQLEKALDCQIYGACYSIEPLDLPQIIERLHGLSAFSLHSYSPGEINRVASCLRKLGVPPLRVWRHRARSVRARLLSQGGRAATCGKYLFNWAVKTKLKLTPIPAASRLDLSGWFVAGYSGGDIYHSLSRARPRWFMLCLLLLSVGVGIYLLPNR

Structure (SMILES) | IC50 [nM]
CC(C)(CO)NC(=O)c1ccc(-c2ccc(Cl)cc2)c(COc2ccc(-c3nc4cc(C(=O)O)ccc4n3C3CCCCC3)cc2)c1 [Example 352, 2-{4-[2-(4-chlorophenyl)-5-{(1-hydroxy-2-methylpropan-2-yl)carbamoyl}benzyloxy]phenyl}-1-cyclohexylbenzimidazole-5-carboxylic acid hydrochloride] | 13
CC1(C)COC(c2ccc(-c3ccc(Cl)cc3)c(COc3ccc(-c4nc5cc(C(=O)O)ccc5n4C4CCCCC4)cc3)c2)=N1 [Example 353, 2-{4-[2-(4-chlorophenyl)-5-(4,4-dimethyl-2-oxazolin-2-yl)benzyloxy]phenyl}-1-cyclohexylbenzimidazole-5-carboxylic acid dihydrochloride] | 23
O=C(O)c1ccc2c(c1)nc(-c1ccc(OCc3ccc(C(=O)N4CCC(O)CC4)cc3-c3ccc(Cl)cc3)cc1)n2C1CCCCC1 [Example 354, 2-{4-[2-(4-chlorophenyl)-4-(4-hydroxypiperidin-1-ylcarbonyl)benzyloxy]phenyl}-1-cyclohexylbenzimidazole-5-carboxylic acid hydrochloride] | 13
O=C(O)c1ccc2c(c1)nc(-c1ccc(OCc3ccc(C(=O)NCCO)cc3-c3ccc(Cl)cc3)cc1)n2C1CCCCC1 [Example 355, 2-{4-[2-(4-chlorophenyl)-4-{(2-hydroxyethyl)carbamoyl}-benzyloxy]phenyl}-1-cyclohexylbenzimidazole-5-carboxylic acid hydrochloride] | 15
O=C(O)c1ccc2c(c1)nc(-c1ccc(OCc3ccc(C(=O)NCc4ccncc4)cc3-c3ccc(Cl)cc3)cc1)n2C1CCCCC1 [Example 356, 2-{4-[2-(4-chlorophenyl)-4-{(4-pyridylmethyl)carbamoyl}-benzyloxy]phenyl}-1-cyclohexylbenzimidazole-5-carboxylic acid] | 16
CN(C)C(=O)c1ccc(COc2ccc(-c3nc4cc(C(=O)O)ccc4n3C3CCCCC3)cc2)c(-c2ccc(Cl)cc2)c1 [Example 357, 2-{4-[2-(4-chlorophenyl)-4-(dimethylcarbamoyl)benzyloxy]phenyl}-1-cyclohexylbenzimidazole-5-carboxylic acid hydrochloride] | 19
Nc1nc(-c2ccc(-c3ccc(Cl)cc3)c(COc3ccc(-c4nc5cc(C(=O)O)ccc5n4C4CCCCC4)cc3)c2)cs1 [Example 358, 2-{4-[5-(2-aminothiazol-4-yl)-2-(4-chlorophenyl)benzyloxy]-phenyl}-1-cyclohexylbenzimidazole-5-carboxylic acid dihydrochloride] | 17
O=C(O)c1ccc2c(c1)nc(-c1ccc(OCc3cc(S(=O)(=O)N4CCC(O)CC4)ccc3-c3ccc(Cl)cc3)cc1)n2C1CCCCC1 [Example 359, 2-{4-[2-(4-chlorophenyl)-5-(4-hydroxypiperidin-1-ylsulfonyl)benzyloxy]phenyl}-1-cyclohexylbenzimidazole-5-carboxylic acid hydrochloride] | 15
CN(C)C(=O)c1ccc(-c2ccc(F)cc2)c(COc2ccc(-c3nc4cc(C(=O)O)ccc4n3C3CCCCC3)cc2)c1 [Example 360, 2-{4-[5-(dimethylcarbamoyl)-2-(4-fluorophenyl)benzyloxy]phenyl}-1-cyclohexylbenzimidazole-5-carboxylic acid hydrochloride] | 14
CN(C)C(=O)c1ccc(-c2cccc(F)c2)c(COc2ccc(-c3nc4cc(C(=O)O)ccc4n3C3CCCCC3)cc2)c1 [Example 361, 2-{4-[5-(dimethylcarbamoyl)-2-(3-fluorophenyl)benzyloxy]phenyl}-1-cyclohexylbenzimidazole-5-carboxylic acid hydrochloride] | 28
CN(C)C(=O)c1ccc(-c2ccc(Cl)s2)c(COc2ccc(-c3nc4cc(C(=O)O)ccc4n3C3CCCCC3)cc2)c1 [Example 362, 2-{4-[2-(5-chlorothiophen-2-yl)-5-(dimethylcarbamoyl)benzyloxy]-phenyl}-1-cyclohexylbenzimidazole-5-carboxylic acid hydrochloride] | 20
Cc1cnc(-c2ccc(Br)c(COc3ccc(-c4nc5cc(C(=O)O)ccc5n4C4CCCCC4)cc3)c2)o1 [Example 363, 2-{4-[2-bromo-5-(5-methyloxazol-2-yl)benzyloxy]phenyl}-1-cyclohexylbenzimidazole-5-carboxylic acid hydrochloride] | 110
Cc1cnc(-c2ccc(Br)c(COc3ccc(-c4nc5cc(C(=O)O)ccc5n4C4CCCCC4)cc3)c2)s1 [Example 364, 2-{4-[2-bromo-5-(5-methylthiazol-2-yl)benzyloxy]phenyl}-1-cyclohexylbenzimidazole-5-carboxylic acid hydrochloride] | 120
Cc1cnc(-c2ccc(-c3ccc(Cl)cc3)c(COc3ccc(-c4nc5cc(C(=O)O)ccc5n4C4CCCCC4)cc3)c2)o1 [Example 365, 2-{4-[2-(4-chlorophenyl)-5-(5-methyloxazol-2-yl)benzyloxy]-phenyl}-1-cyclohexylbenzimidazole-5-carboxylic acid hydrochloride] | 20
Cc1cnc(-c2ccc(-c3ccc(Cl)cc3)c(COc3ccc(-c4nc5cc(C(=O)O)ccc5n4C4CCCCC4)cc3)c2)s1 [Example 366, 2-{4-[2-(4-chlorophenyl)-5-(5-methylthiazol-2-yl)benzyloxy]-phenyl}-1-cyclohexylbenzimidazole-5-carboxylic acid hydrochloride] | 24
O=C(O)c1ccc2c(c1)nc(-c1ccc(OCc3cc(-c4nnn[nH]4)ccc3-c3ccc(Cl)cc3)cc1)n2C1CCCCC1 [Example 367, 2-{4-[2-(4-chlorophenyl)-5-tetrazol-5-ylbenzyloxy]phenyl}-1-cyclohexylbenzimidazole-5-carboxylic acid hydrochloride] | 11
O=C(O)c1ccc2c(c1)nc(-c1ccc(OCc3cc(Cl)ccc3-c3ccc(-c4nnn[nH]4)cc3)cc1)n2C1CCCCC1 [Example 369, 2-{4-[5-chloro-2-(4-tetrazol-5-ylphenyl)benzyloxy]phenyl}-1-cyclohexylbenzimidazole-5-carboxylic acid hydrochloride] | 22
O=C(O)c1ccc2c(c1)nc(-c1ccc(OCc3cc(OCCN4CCC(O)CC4)ccc3-c3ccc(Cl)cc3)cc1)n2C1CCCCC1 [Example 370, 2-{4-[2-(4-chlorophenyl)-5-{2-(4-hydroxypiperidin-1-yl)ethoxy}benzyloxy]phenyl}-1-cyclohexylbenzimidazole-5-carboxylic acid hydrochloride] | 17
O=C(O)c1ccc2c(c1)nc(-c1ccc(OCc3cc(N4CCCCC4=O)ccc3-c3ccc(Cl)cc3)cc1F)n2C1CCCCC1 [Example 371, 2-{4-[2-(4-chlorophenyl)-5-(2-oxopiperidin-1-yl)benzyloxy]-2-fluorophenyl}-1-cyclohexylbenzimidazole-5-carboxylic acid hydrochloride] | 15
CN(C)C(=O)c1cc(COc2ccc(-c3nc4cc(C(=O)O)ccc4n3C3CCCCC3)c(F)c2)cc(-c2ccc(Cl)cc2)c1 [Example 372, 2-{4-[3-(4-chlorophenyl)-5-(dimethylcarbamoyl)benzyloxy]-2-fluorophenyl}-1-cyclohexylbenzimidazole-5-carboxylic acid hydrochloride] | 33
